Experimental data from ChEMBL document CHEMBL1201862, “PubChem BioAssay data set” (2004).
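Method: 48-hour compound exposure of cells in 96-well plates, five concentrations, linear interpolation of endpoints. Here, GI50 denotes the concentration required for 50% inhibition of growth.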 Calls of active or inactive are those of the source. No stated cut-off is given here; in the data, active = GI50 up to about 1.1 µM and inactive = higher.

Legend:
Assay in all cases: DTP human tumour cell line panel, 48 h
786-0 = test system: 786-0
A498 = test system: A498
A549 = test system: A549
ACHN = test system: ACHN
BT-549 = test system: BT-549
CAKI-1 = test system: CAKI-1
CCRF-CEM = test system: CCRF-CEM
COLO 205 = test system: COLO 205
DU-145 = test system: DU-145
EKVX = test system: EKVX
HCC 2998 = test system: HCC 2998
HCT-116 = test system: HCT-116
HCT-15 = test system: HCT-15
HOP-62 = test system: HOP-62
HOP-92 = test system: HOP-92
HT-29 = test system: HT-29
IGROV-1 = test system: IGROV-1
K562 = test system: K562
KM12 = test system: KM12
LOX IMVI = test system: LOX IMVI
M14 = test system: M14
MCF7 = test system: MCF7
MDA-MB-231 = test system: MDA-MB-231
MDA-MB-435 = test system: MDA-MB-435
MDA-N = test system: MDA-N
MOLT-4 = test system: MOLT-4
Malme-3M = test system: Malme-3M
NCI-H226 = test system: NCI-H226
NCI-H23 = test system: NCI-H23
NCI-H460 = test system: NCI-H460
NCI-H522 = test system: NCI-H522
NCI/ADR-RES = test system: NCI/ADR-RES
OVCAR-3 = test system: OVCAR-3
OVCAR-4 = test system: OVCAR-4
OVCAR-5 = test system: OVCAR-5
OVCAR-8 = test system: OVCAR-8
PC-3 = test system: PC-3
RPMI-8226 = test system: RPMI-8226
RXF 393 = test system: RXF 393
SF-268 = test system: SF-268
SF-295 = test system: SF-295
SF-539 = test system: SF-539
SK-MEL-28 = test system: SK-MEL-28
SK-MEL-2 = test system: SK-MEL-2
SK-MEL-5 = test system: SK-MEL-5
SK-OV-3 = test system: SK-OV-3
SN12C = test system: SN12C
SNB-19 = test system: SNB-19
SNB-75 = test system: SNB-75
SR = test system: SR
SW-620 = test system: SW-620
T47D = test system: T47D
TK-10 = test system: TK-10
U-251 = test system: U-251
UACC-257 = test system: UACC-257
UACC-62 = test system: UACC-62
UO-31 = test system: UO-31

In the case of `O=C(O)c1cc(Cl)cc2c1NC1(N2)C(=O)Nc2ccccc21` (stereo not given), the GI50 (786-0) is reported as > 100 µM (inactive), the GI50 (A498) is reported as > 100 µM (inactive) and the GI50 (A549) is reported as > 100 µM (inactive). The GI50 (ACHN) was > 100 µM (inactive), the GI50 (BT-549) was > 100 µM (inactive) and the GI50 (CAKI-1) was > 100 µM (inactive). The GI50 (CCRF-CEM) was > 100 µM (inactive), the GI50 (COLO 205) was > 100 µM (inactive) and the GI50 (DU-145) was > 100 µM (inactive). The GI50 (EKVX) was > 100 µM (inactive), the GI50 (HCC 2998) was > 100 µM (inactive) and the GI50 (HCT-116) was 56.4 µM (inactive). For the same compound, the GI50 (HCT-15) was 45.4 µM, the GI50 (HOP-62) was > 100 µM (inactive) and the GI50 (HOP-92) was > 100 µM (inactive). The GI50 (HT-29) was 78.5 µM (inactive), the GI50 (IGROV-1) was 33.3 µM (inactive) and the GI50 (K562) was > 100 µM (inactive). The GI50 (KM12) was > 100 µM (inactive), the GI50 (LOX IMVI) was 49 µM (inactive) and the GI50 (M14) was > 100 µM (inactive). The GI50 (MCF7) was > 100 µM (inactive), the GI50 (MDA-MB-231) was > 100 µM (inactive) and the GI50 (MDA-MB-435) was > 100 µM (inactive). For the same compound, the GI50 (MDA-N) was > 100 µM (inactive), the GI50 (MOLT-4) was > 100 µM (inactive) and the GI50 (Malme-3M) was 69.2 µM (inactive). The GI50 (NCI-H226) was > 100 µM (inactive), the GI50 (NCI-H23) was > 100 µM (inactive) and the GI50 (NCI-H460) was > 100 µM (inactive). The GI50 (NCI-H522) was > 100 µM (inactive), the GI50 (NCI/ADR-RES) was > 100 µM (inactive) and the GI50 (OVCAR-3) was > 100 µM (inactive). The GI50 (OVCAR-4) was > 100 µM (inactive), the GI50 (OVCAR-5) was > 100 µM (inactive) and the GI50 (OVCAR-8) was 39.6 µM (inactive). For the same compound, the GI50 (PC-3) was > 100 µM (inactive), the GI50 (RPMI-8226) was > 100 µM (inactive) and the GI50 (RXF 393) was 52.6 µM (inactive). The GI50 (SF-268) was 62.1 µM (inactive), the GI50 (SF-295) was > 100 µM (inactive) and the GI50 (SF-539) was > 100 µM (inactive). For the same compound, the GI50 (SK-MEL-28) was > 100 µM (inactive), the GI50 (SK-MEL-2) was > 100 µM (inactive) and the GI50 (SK-MEL-5) was > 100 µM (inactive). For the same compound, the GI50 (SK-OV-3) was > 100 µM (inactive), the GI50 (SN12C) was > 100 µM (inactive) and the GI50 (SNB-19) was > 100 µM (inactive). The GI50 (SNB-75) was 97.1 µM (inactive), the GI50 (SR) was 65.8 µM (inactive) and the GI50 (SW-620) was 73.6 µM (inactive). The GI50 (T47D) was > 100 µM (inactive), the GI50 (TK-10) was > 100 µM (inactive) and the GI50 (U-251) was 42.5 µM (inactive). For the same compound, the GI50 (UACC-257) was > 100 µM (inactive), the GI50 (UACC-62) was > 100 µM (inactive) and the GI50 (UO-31) was > 100 µM (inactive).

In the case of `C=C[C@@]1(C)CC(=O)[C@]2(O)[C@@]3(C)[C@@H](OC(C)=O)CCC(C)(C)[C@@H]3[C@H](OC(C)=O)[C@H](OC(C)=O)[C@@]2(C)O1`, the GI50 (786-0) is reported as > 100 µM (inactive), the GI50 (A498) is reported as > 100 µM (inactive) and the GI50 (A549) is reported as > 100 µM (inactive). For the same compound, the GI50 (ACHN) was > 100 µM (inactive), the GI50 (BT-549) was > 100 µM (inactive) and the GI50 (CAKI-1) was > 100 µM (inactive). The GI50 (DU-145) was > 100 µM (inactive), the GI50 (EKVX) was > 100 µM (inactive) and the GI50 (HCC 2998) was > 100 µM (inactive). The GI50 (HCT-116) was > 100 µM (inactive), the GI50 (HCT-15) was over 100 µM and the GI50 (HOP-62) was > 100 µM (inactive). The GI50 (HOP-92) was > 100 µM (inactive), the GI50 (HT-29) was > 100 µM (inactive) and the GI50 (IGROV-1) was 56.6 µM (inactive). For the same compound, the GI50 (K562) was > 100 µM (inactive), the GI50 (KM12) was 36.1 µM (inactive) and the GI50 (LOX IMVI) was > 100 µM (inactive). The GI50 (M14) was > 100 µM (inactive), the GI50 (MCF7) was > 100 µM (inactive) and the GI50 (MDA-MB-231) was > 100 µM (inactive). For the same compound, the GI50 (MDA-MB-435) was > 100 µM (inactive), the GI50 (MDA-N) was > 100 µM (inactive) and the GI50 (MOLT-4) was 51.4 µM (inactive). For the same compound, the GI50 (NCI-H226) was > 100 µM (inactive), the GI50 (NCI-H23) was > 100 µM (inactive) and the GI50 (NCI-H460) was > 100 µM (inactive). For the same compound, the GI50 (NCI/ADR-RES) was > 100 µM (inactive), the GI50 (OVCAR-3) was > 100 µM (inactive) and the GI50 (OVCAR-4) was > 100 µM (inactive). The GI50 (OVCAR-5) was > 100 µM (inactive), the GI50 (OVCAR-8) was > 100 µM (inactive) and the GI50 (PC-3) was > 100 µM (inactive). For the same compound, the GI50 (SF-295) was > 100 µM (inactive), the GI50 (SF-539) was > 100 µM (inactive) and the GI50 (SK-MEL-28) was > 100 µM (inactive). For the same compound, the GI50 (SK-MEL-2) was > 100 µM (inactive), the GI50 (SK-OV-3) was > 100 µM (inactive) and the GI50 (SN12C) was > 100 µM (inactive). For the same compound, the GI50 (SNB-19) was > 100 µM (inactive), the GI50 (SNB-75) was > 100 µM (inactive) and the GI50 (SR) was > 100 µM (inactive). The GI50 (SW-620) was > 100 µM (inactive), the GI50 (T47D) was > 100 µM (inactive) and the GI50 (U-251) was > 100 µM (inactive). For the same compound, the GI50 (UACC-257) was > 100 µM (inactive), the GI50 (UACC-62) was > 100 µM (inactive) and the GI50 (UO-31) was > 100 µM (inactive).
